According to patent US10889555B2, “Sulfonamide compound or salt thereof” (Taiho Pharmaceutical Co., Ltd., priority 2016, dated 2021):

These compounds were tested on HCC 1806 cells (assay: Cell proliferation inhibitory effect on human breast cancer cell line (crystal violet, 72 hours)). Conditions: Homo sapiens, HCC1806, 72 h, read-out: Cell growth suppression IC50.
Format: cell-based
Description: Human derived breast cancer cell line HCC 1806 cells were daily passaged at a cell density not exceeding 80% in ATCC recommended Roswell Park Memorial Institute medium (RPMI-1640) containing 10% fetal bovine serum (FBS). In order to start the test of cell proliferation inhibitory activity, HCC 1806 cells were suspended in the above medium, after seeing at 180 μL in each well of a 96-well flat bottom plate so that the number of cells per well was 2,000, the cells were cultured at 37° C. for 1 day in an incubator containing 5% carbon dioxide gas. On the next day, the test compound was dissolved in DMSO, and 20 μL of a drug additive solution diluted serially with distilled water to 10 times of the final concentration was added to each well of the culture plate of the cells, and the cells were cultured at 37° C. for 72 hours in an incubator containing 5% carbon dioxide gas. After culturing for 72 hours, 20 μL of glutaraldehyde was added to each well and allowed to stand for 30 minutes, then the plate was washed 10 times with water and was dried. 100 μL of a stain solution (0.05% crystal violet in a 20% methanol solution) was added to each well and allowed to stand for 30 minutes, then the plate was washed 10 times with water and was dried. 100 μL of an extract solution (0.1 N NaH2PO4: 100% ethanol=1:1) was added to each well and mixed, and the mixture was measured at a wavelength of 540 nm using a plate reader (MTP-450 manufactured by Corona Electric Co., Ltd.). The growth inhibition rate was calculated from the following formula, and the concentration (IC50 (μM)) of a test compound inhibiting 50% was determined. Growth inhibition rate (%)={(C−B)−(T−B)}/(C−B)×100
T: Absorbance of well to which test compound was added
C: Absorbance of wells to which no test compound was added
B: Absorbance of wells to which no cell suspension was added

Row | IC50 [µM] | SMILES
1 | 0.75 | C[C@H](c1c(F)ccc2ccccc12)[C@H](NS(=O)(=O)c1ccc(Cl)c2c1OCCC2F)c1n[nH]c(=O)o1 (mixture of isomers) [Example 292, 5-chloro-4-fluoro-N-((1S,2R)-2-(2-fluoronaphthalen-1-yl)-1-(5-oxo-4,5-dihydro-1,3,4-oxadiazol-2-yl)propyl)chroman-8-sulfonamide]
2 | 0.41 | Cc1c(Cl)ccc(F)c1[C@@H](C)[C@H](NS(=O)(=O)c1ccc(Cl)c2c1OCCC2(C)N)c1n[nH]c(=O)o1 (mixture of isomers) [Example 328, 4-amino-5-chloro-N-((1S,2R)-2-(3-chloro-6-fluoro-2-methylphenyl)-1-(5-oxo-4,5-dihydro-1,3,4-oxadiazol-2-yl)propyl)-4-methylchroman-8-sulfonamide]
3 | 0.19 | Cc1c(Br)ccc(F)c1[C@@H](C)[C@H](NS(=O)(=O)c1ccc(F)c2c1OCCC2(C)O)c1n[nH]c(=O)o1 (single isomer, unassigned) [Example 227A]
4 | 0.31 | Cc1c(Cl)ccc(F)c1[C@@H](C)[C@H](NS(=O)(=O)c1ccc(F)c2c1OCCC2(C)O)c1n[nH]c(=O)o1 (single isomer, unassigned) [Example 229A]
5 | 0.57 | C[C@H](c1c(F)ccc2ccccc12)[C@H](NS(=O)(=O)c1ccc(Cl)c2c1OCCC2O)c1n[nH]c(=O)o1 (single isomer, unassigned) [Example 234A]
6 | 0.44 | Cc1c(Cl)ccc(F)c1[C@@H](C)[C@H](NS(=O)(=O)c1ccc(Cl)c2c1OCCC2O)c1n[nH]c(=O)o1 (single isomer, unassigned) [Example 238A]
7 | 0.72 | CCc1ccc(F)c([C@@H](C)[C@H](NS(=O)(=O)c2ccc(Cl)c3c2OCCC3O)c2n[nH]c(=O)o2)c1C (single isomer, unassigned) [Example 239A]
8 | 0.72 | Cc1ccc(F)c([C@@H](C)[C@H](NS(=O)(=O)c2ccc(C(F)(F)F)c3c2OCCC3O)c2n[nH]c(=O)o2)c1C (single isomer, unassigned) [Example 244A]
9 | 0.24 | Cc1c(Cl)ccc(F)c1[C@@H](C)[C@H](NS(=O)(=O)c1ccc(Cl)c2c1OCCC2(C)N)c1n[nH]c(=O)o1 (single isomer, unassigned) [Example 330A]

Further lines, the compound ahead of its results:

Row | SMILES | IC50 [µM]
10 | Cc1ccc(F)c([C@@H](C)[C@H](NS(=O)(=O)c2ccc(Cl)c3c2OCCC3(O)C(F)(F)F)c2n[nH]c(=O)o2)c1C (single isomer, unassigned) [Example 220A] | 0.37
11 | Cc1ccc(F)c([C@@H](C)[C@H](NS(=O)(=O)c2ccc(F)c3c2OCCC3(C)O)c2n[nH]c(=O)o2)c1C (single isomer, unassigned) [Example 224A] | 0.1
12 | Cc1ccc(F)c([C@@H](C)[C@H](NS(=O)(=O)c2ccc(F)c3c2OCCC3(C)O)c2n[nH]c(=O)o2)c1C (single isomer, unassigned) [Example 224B] | 0.77
13 | C[C@H](c1c(F)ccc2ccccc12)[C@H](NS(=O)(=O)c1ccc(Cl)cc1C(N)=O)c1n[nH]c(=O)o1 [Example 6, 5-chloro-2-(N-((1S,2R)-2-(2-fluoronaphthalen-1-yl)-1-(5-oxo-4,5-dihydro-1,3,4-oxadiazol-2-yl)propyl)sulfamoyl)benzamide] | 0.29
14 | Cc1ccc(S(=O)(=O)N[C@H](c2n[nH]c(=O)o2)[C@H](C)c2c(F)ccc(C)c2C)c(C(N)=O)c1 [Example 10, 2-(N-((1S,2R)-2-(3-6-fluoro-2,3-dimethylphenyl)-1-(5-oxo-4,5-dihydro-1,3,4-oxadiazol-2-yl)propyl)sulfamoyl)-5-methylbenzamide] | 0.56
15 | Cc1ccc(S(=O)(=O)N[C@H](c2n[nH]c(=O)o2)[C@H](C)c2c(F)ccc3ccccc23)c(C(N)=O)c1 [Example 12, 2-(N-((1S,2R)-2-(2-Fluoronaphthalen-1-yl)-1-(5-oxo-4,5-dihydro-1,3,4-oxadiazol-2-yl)propyl)sulfamoyl)-5-methylbenzamide] | 0.5
16 | Cc1cc(F)c(F)c([C@@H](C)[C@H](NS(=O)(=O)c2ccc(Cl)cc2C(N)=O)c2n[nH]c(=O)o2)c1C [Example 13, 5-chloro-2-(N-((1S,2R)-2-(2,3-difluoro-5,6-dimethylphenyl)-1-(5-oxo-4,5-dihydro-1,3,4-oxadiazol-2-yl)propyl)sulfamoyl)benzamide] | 0.31

Same assay, conditions: read-out: Cell growth suppression IC50

Row | IC50 [µM] | SMILES
17 | 0.08 | [2H]C([2H])([2H])C1(O)CCOc2c(S(=O)(=O)N[C@H](c3n[nH]c(=O)o3)[C@H](C)c3c(F)ccc(Br)c3C)ccc(Cl)c21 (single isomer, unassigned) [Example 226A]
18 | 0.3 | [2H]C([2H])([2H])C1(O)CCOc2c(S(=O)(=O)N[C@H](c3n[nH]c(=O)o3)[C@H](C)c3c(F)ccc(Br)c3C)ccc(Cl)c21 (single isomer, unassigned) [Example 226B]
19 | 0.29 | Cc1ccc(F)c([C@@H](C)[C@H](NS(=O)(=O)c2ccc(F)c3c2OCCC3O)c2n[nH]c(=O)o2)c1C (single isomer, unassigned) [Example 230A]
20 | 0.78 | Cc1ccc(F)c([C@@H](C)[C@H](NS(=O)(=O)c2ccc(F)c3c2OCCC3O)c2n[nH]c(=O)o2)c1C (single isomer, unassigned) [Example 230B]
21 | 0.29 | Cc1c(Br)ccc(F)c1[C@@H](C)[C@H](NS(=O)(=O)c1ccc(Cl)c2c1OCCC2O)c1n[nH]c(=O)o1 (single isomer, unassigned) [Example 243A]
22 | 0.7 | Cc1c(Br)ccc(F)c1[C@@H](C)[C@H](NS(=O)(=O)c1ccc(Cl)c2c1OCCC2O)c1n[nH]c(=O)o1 (single isomer, unassigned) [Example 243B]

The remaining lines, values behind:

Row | SMILES | IC50 [µM]
23 | [2H]C([2H])([2H])C1(O)CCOc2c(S(=O)(=O)N[C@H](c3n[nH]c(=O)o3)[C@H](C)c3c(F)ccc(C)c3C)ccc(Cl)c21 (single isomer, unassigned) [Example 200B] | 0.46
24 | Cc1ccc(F)c([C@@H](C)[C@H](NS(=O)(=O)c2ccc(Cl)c3c2OCCC3(C)O)c2n[nH]c(=O)o2)c1C (single isomer, unassigned) [Example 207A] | 0.07
25 | Cc1ccc(F)c([C@@H](C)[C@H](NS(=O)(=O)c2ccc(Cl)c3c2OCCC3(C)O)c2n[nH]c(=O)o2)c1C (single isomer, unassigned) [Example 207B] | 0.25
26 | COc1c(S(=O)(=O)N[C@H](c2n[nH]c(=O)o2)[C@H](C)c2c(F)ccc(C)c2C)ccc(Cl)c1C(C)O (single isomer, unassigned) [Example 208A] | 0.33
27 | COc1c(S(=O)(=O)N[C@H](c2n[nH]c(=O)o2)[C@H](C)c2c(F)ccc(C)c2C)ccc(Cl)c1C(C)O (single isomer, unassigned) [Example 208B] | 0.05
28 | Cc1c(Cl)ccc(F)c1[C@@H](C)[C@H](NS(=O)(=O)c1ccc(Cl)c2c1OCCC2(C)O)c1n[nH]c(=O)o1 (single isomer, unassigned) [Example 209B] | 0.82
29 | Cc1ccc(F)c([C@@H](C)[C@H](NS(=O)(=O)c2ccc(Cl)c3c2OCCC3(O)C(F)(F)F)c2n[nH]c(=O)o2)c1C (single isomer, unassigned) [Example 220B] | 0.5
30 | Cc1c(Br)ccc(F)c1[C@@H](C)[C@H](NS(=O)(=O)c1ccc(Cl)c2c1OCCC2(C)O)c1n[nH]c(=O)o1 (single isomer, unassigned) [Example 222B] | 0.67
31 | Cc1ccc(F)c([C@@H](C)[C@H](NS(=O)(=O)c2ccc(Cl)c3c2OCCC3O)c2n[nH]c(=O)o2)c1C (single isomer, unassigned) [Example 235B] | 0.4
